Measured values: patent US6541513B2, “Carbamate compounds for use in preventing or treating psychotic disorders” (Ortho-McNeil Pharmaceutical, Inc., priority 2001, dated 2003)

Columns and labels:
[1] = system: DOI-induced headshakes in male NIH Swiss mice; experiment: DOI-Induced Headshake Model; assay type: in vivo; conditions: for % Inhibition (% Inh.) of DOI-induced headshakes: 45 min before DOI 5 mg/kg ip, percent suppression compared to vehicle group; for maximal suppression of DOI-induced headshakes: at the 100 mg/kg dose, oral, DOI 5 mg/kg ip
Description: DOI-Induced Headshake Model
The administration of DOI to rodents has been used as a model for assessing potential efficacy of an atypical antipsychotic in treating psychosis and schizophrenia in certain patient populations with direct or indirect defects in the serotonin system.
Male NIH Swiss mice weighing 18-21 grams at the time of purchase were obtained from Harlan Sprague Dawley, Inc. (Prattville, Ala.). They were individually housed in wire-mesh cages at an ambient temperature of 21 to 23° C. with an automated 12/12 hour light/dark cycle. All […] had free access to 5001 Rodent Chow (Purina Mills, Brentwood, Mo.) and water except during experimental sessions. The principles of laboratory animal care (NIH publication No. 85-23, revised 1985) were followed.
DOI (purchased from Sigma, St. Louis, Mo.) was dissolved in saline, neutralized to pH ˜7.4 and injected ip in a volume of 10 ml/kg body weight. Injection solution was freshly prepared 30-45 minutes before each experiment. Methylcellulose (0.5%, Sigma) was used as oral dosing vehicle. All experiments were performed between 10 am and 4 pm during the day. The mice were fasted the evening before the experiment.
An enantiomer of Formula (Ib), Formula (IIb) or vehicle was orally administered at various concentrations ranging from 10 μg to 100 mg/kg. The animals were then injected with either saline or DOI (ip, 5 mg/kg) 45 minutes after the administration of either vehicle or an enantiomer of Formula (Ib) or Formula (IIb). Immediately upon DOI administration, the mice were placed in isolated observation cylinders made of a clear polycarbonate (27 cm in diameter and 55 cm deep). The number of randomized headshakes (or twitches) was recorded by an experienced observer using a hand held mechanical counter. Headshake responses were counted in consecutive 10-min periods.
DOI-Induced Headshake Model Analysis
All data are expressed as the mean ±SEM. The average of the headshakes in the vehicle group was expressed as 100%. The DOI-induced headshakes in groups treated with an enantiomer of Formula (Ib) and Formula (IIb) were expressed as percent suppression compared to the vehicle group. Statistical analysis for significant differences was done with the Student t test.

[2] = system: PPI-disruptive effects of PCP in Sprague-Dawley-derived male rats; experiment: Pre-Pulse Inhibition Model (PCP-disrupted PPI); assay type: in vivo
Excerpt: Pre-Pulse Inhibition Model
The restorative effect of an enantiomer of Formula (Ib) on Pre-Pulse Inhibition (PPI) was compared to the disruptive PPI effect of phencyclidine (PCP). PCP is a NMDA antagonist having a wide range of psychotominetic effects in humans. The PPI disruption caused by PCP can be restored by some atypical antipsychotics, such as clozapine, olanzapine, and quetiapine.
Sprague-Dawley-derived male rats were housed in groups of two or three and maintained in a temperature-controlled environment on a 12 h:12 h light cycle. Except during behavioral testing, animals were given free access to food and water. Animals were handled daily for several days to desensitize them to handling stress before behavioral analysis.
An SR-LAB Startle System was used to control auditory stimuli and background noise level and to monitor startle response (±one msec). The average amplitude of the response was the main dependent variable used. Animals (n=20) were grouped according to a baseline mean PPI determined in a brief matching session. Baseline mean PPI testing consisted of 12 noise bursts at 118 dB[A] over a 40 msec time period followed by 3 noise bursts at 12 dB[A] over a 40 msec time period two days before testing with drug. […]
Data were collected online simultaneously from multiple startle chambers and analyzed using the Statview 5.0 statistical package.

Compound	% Inhibition (% Inh.) of DOI-induced headshakes ([1]; 0.01 mg/Kg oral) [%]	% Inhibition (% Inh.) of DOI-induced headshakes ([1]; 0.1 mg/Kg oral) [%]	% Inhibition (% Inh.) of DOI-induced headshakes ([1]; 1 mg/Kg oral) [%]	% Inhibition (% Inh.) of DOI-induced headshakes ([1]; 10 mg/Kg oral) [%]	% Inhibition (% Inh.) of DOI-induced headshakes ([1]; 30 mg/Kg oral) [%]	% Inhibition (% Inh.) of DOI-induced headshakes ([1]; 100 mg/Kg oral) [%]	maximal suppression of DOI-induced headshakes [1] [%]	dose-dependent reduction in startle magnitude ([2]; 5, 15 and 45 mg/kg p.o.)	block of the PPI-disruptive effects of PCP ([2]; acute treatment 5, 15 and 45 mg/kg p.o., 110 min before PCP 1.5 mg/kg s.c.)
NC(=O)OC[C@H](OC(N)=O)c1ccccc1Cl [Formula (IIb)]	1	11	4	41	36	43	43	–	–
NC(=O)OC[C@@H](O)c1ccccc1Cl [Formula (Ib)]	11	20	41	63	58	76	76	lacked an orderly dose-dependent reduction in startle magnitude	failed to significantly block the PPI-disruptive effects of PCP
